Data from ChEMBL document CHEMBL3507680, “University of Dundee, Gates Library screen for HepG2 cell viability”.

assay: Human HepG2 cell viability assay in 384 well format; format: toxicity, cell-based; set-up: dose 125 nL, time 70.5 hour; concentration not given beside the values; conditions: HepG2 cells, read-out: Inhibition

Row | SMILES | cytotoxicity at 70.5 h [%]
1 | CCOc1ncccc1NC(=O)NCC(O)c1ccccc1OC (configuration not stated) | 11.2
2 | c1ccc(N2CC3(CCN(Cc4cccnc4)C3)C2)nc1 | -7.68
3 | CN(Cc1nnc(C2CC2)n1C)C1CCN(Cc2ccon2)C1 (configuration not stated) | -12.4
4 | COCCN(C)C[C@@H]1CN(C(=O)c2ccc(=O)n(C)c2)C[C@@H]1CO | -3.56
5 | COC(=O)c1ccc(NC2CCN(CC(F)(F)F)C2=O)cc1C (configuration not stated) | 26.2
6 | CCc1[nH]c(C2(N)CCCC2)nc(=O)c1C | 19.5
7 | Cc1ncoc1C(=O)N1CCOC(Cc2ccccc2)C1 (configuration not stated) | -6.6
8 | Cc1ccsc1C(O)CNC(=O)Cc1ccc(F)cc1 (configuration not stated) | 25
9 | O=C(CCc1ccccn1)N1CCc2cc(Cl)cc(Cl)c2C1 | 29.3
10 | Cc1cccc(C(=O)N2C[C@@H]3CCN(c4cccnc4)C[C@@H]3C2)c1 | 31.2
11 | O=C(NCC1CCCO1)Nc1nnc(C(F)(F)F)s1 (configuration not stated) | -15.8
12 | CSCC[C@H](NC(=O)N1CCC(Cc2ccccc2)CC1)C(=O)O | -13.4
13 | CC(C)N(C)C(=O)C1CCN(Cc2cc3c(cc2O)CCC3)CC1 | -5.17
14 | COCCN1CCn2cc(CNC(=O)C3CCC3)nc2C1 | 1.63
15 | Cc1n[nH]c(C2CN(CC(=O)NCCc3ccsc3)CCO2)n1 (configuration not stated) | -1.23
16 | Cn1ccc(C(=O)N2CCC3(CC2)CC(Nc2cnccn2)CO3)n1 (configuration not stated) | -7
17 | c1cc(-c2cncnc2)cc(-c2ccn(CC3CCNC3)n2)c1 (configuration not stated) | -15.7
18 | CCCN1CCC(NC(=O)c2ccnc(SCC)c2)CC1 | -0.521
19 | O=C(NCCO)C1(Cc2ccccc2-c2ccncc2)CCOCC1 | -7.35
20 | c1ccc(-c2ncc3c(n2)C2(CCN(c4ncccn4)C2)COC3)cc1 (configuration not stated) | -2.35
21 | CC[C@H]1CN(C(=O)c2cnc(CN3CCCC3)s2)CC[C@@]1(C)O | 22.4

Row | SMILES | cytotoxicity at 70.5 h [%]
22 | O=C(CC1OCCc2ccccc21)NCC1(O)CCCCC1 (configuration not stated) | -2.94
23 | O=C(c1ccccc1)N1CCC2(CCCN2c2ncccn2)CC1 | 3.93
24 | CNC(=O)Cn1cc(Nc2cccc(F)c2C#N)cn1 | -32.8
25 | Cc1cc(CN(C)C(=O)C2CC(=O)N(Cc3cccnc3)C2)on1 (configuration not stated) | -9.4
26 | CCN1CCN(C2CCN(Cc3nnc(C(C)C)o3)CC2)C1=O | -7.93
27 | CCN1CCC(CNCc2cc(OC)ccc2OC)C1 (configuration not stated) | 5.64
28 | CCC1CN(CC(=O)NC(C)C)CCO1 (configuration not stated) | -10.4
29 | O=C(c1cnccn1)N1CCOCC2(CCN(C3CCOCC3)C2)C1 (configuration not stated) | -15.5
30 | Clc1cccc(-n2cnnn2)c1N1CCOCC1 | -5.42
31 | CN(Cc1ccco1)Cc1cncc2c1CCN(Cc1ccoc1)C2 | -8.02
32 | CSCC(=O)N1C[C@H](c2ccc(C)o2)[C@@H](N)C1 | -3.37
33 | O=C(NCCCNC(=O)c1cccc(O)c1)Nc1ccc(F)cc1F | -2.92
34 | O=c1n(Cc2ccc(F)cc2)nc2ncccn12 | 24.8
35 | CC(C)c1noc(CCCC(=O)N2CCN(C)CC2c2ccccc2)n1 (configuration not stated) | -8.67
36 | O=C1N(Cc2cccc(F)c2)CCC12CCN(c1ccccn1)CC2 | -8.45
37 | Cn1cccc1C(=O)N1CCC2(CCCN2Cc2ccccc2)CC1 | -9.97
38 | O=C(c1cccnc1)N1CCN(c2ccnc3ccsc23)CC1 | -10.7
39 | COc1ccc(C(=O)NC2COc3ccccc3C2)cc1OCC(=O)O (configuration not stated) | -4.51
40 | CCCC1(NC(=O)C(c2ccccc2C)N(C)C)CC1 (configuration not stated) | -5.65
41 | CC(C)c1nnc(NC(=O)NC2CCOc3ccccc32)s1 (configuration not stated) | -2.44
42 | Cc1ccc(S(=O)(=O)N(C)CC(C)O)c(F)c1 (configuration not stated) | 21.4

Row | SMILES | cytotoxicity at 70.5 h [%]
43 | COCCOc1ccc(NC(=O)C2CC(=O)N(CC3CC3)C2)cn1 (configuration not stated) | 19.3
44 | Cc1cc(C(=O)NCCc2c(C)nn(C)c2C)nc(N2CCCCC2)n1 | 20.6
45 | N#CC1(C(=O)NCC2CCC3(CCNCC3)O2)CC1 (configuration not stated) | 20
46 | CCS(=O)(=O)NCCCNC(=O)N(C)C(C)c1ccccn1 (configuration not stated) | -5.57
47 | CCCN(C(=O)c1ocnc1C)C1CCCN(Cc2ccccc2)C1 (configuration not stated) | -5.56
48 | Cc1cn(CC(=O)NC2CCC3(CC2)OCCO3)c2ccccc12 | -6.58
49 | O=C(O)[C@H]1C[C@H](C(=O)NCc2ccncc2)CN(CCC(F)(F)F)C1 | -6.65
50 | CNc1nc(C)c(C(=O)N2C[C@H]3CC[C@@H]2CN(c2cnccn2)C3)s1 | -6.37
51 | Cc1ccsc1C(Cn1ccnc1-c1ccccc1C(=O)O)N(C)C (configuration not stated) | 19.1
52 | CCOc1cc(NC(=O)N(C)Cc2ncnn2C)ccc1C | 20.6
53 | Cn1ccnc1C(=O)N1CCC2(CCN2Cc2ccc(F)cc2)C1 (configuration not stated) | -3.38
54 | Cn1nc2c(cc1=O)CN(Cc1nc(-c3ccco3)no1)CC2 | -7.45
55 | O=C1COC2(CCN(C(=O)c3ccco3)CC2)CN1Cc1cccnc1 | -8.01
56 | Cn1cc(N2CC3(COCCN(Cc4ccsc4)C3)OCC2=O)cn1 (configuration not stated) | 22.6
57 | CC(C)(C)c1csc(CNC(=O)C2NCCc3[nH]cnc32)n1 (configuration not stated) | -9.53
58 | CC(C)n1nc2c(cc1=O)CN(c1ncnc3ccccc13)CC2 | -1.82
59 | Cc1noc(C)c1CN1CCO[C@H]2CN(C(=O)N3CCCC3)C[C@H]21 | 0.539
60 | CC(C)(C)CC(=O)NCC(=O)Nc1ccn(Cc2ccccc2)n1 | -11
61 | CCS(=O)(=O)CC(=O)Nc1cc(-c2cccc(F)c2F)n[nH]1 | -9.86
62 | Cn1cnnc1SCC(=O)NC1CC(=O)N(CCc2ccccc2)C1 (configuration not stated) | -8.79
63 | CCS(=O)(=O)N1CC(c2nc(-c3cccs3)no2)C1 | -2.02

Row | SMILES | cytotoxicity at 70.5 h [%]
64 | CCn1c(C2CCCN(C(=O)c3ccc[nH]3)C2)nn(CCN(C)C)c1=O (configuration not stated) | 4.96
65 | COc1cc(CCC(=O)NC(C)C(=O)O)ccc1OCC(F)(F)F (configuration not stated) | -13
66 | CCOc1ncccc1NC(=O)NC1CCN(S(C)(=O)=O)CC1 | 20.6
67 | NC(CC1CCCC1)c1ccccc1 (configuration not stated) | 0.203
68 | CC[C@H]1N(CC2CCOCC2)CCC[C@]12CCC(=O)N2 | -3.56
69 | CC(C)N1CCC(CC(=O)N2CCC(C(O)c3nccn3C)CC2)CC1 (configuration not stated) | -3.4
70 | COc1ccc(C(=O)C2CCCN(c3cc(C#N)ccn3)C2)cc1OC (configuration not stated) | -5.09
71 | COCCN1CCC2(COCc3c(C)nc(N(C)C)nc32)C1 (configuration not stated) | -2.27
72 | Cc1ccc(CCC(=O)N2CCCC(c3cc(C(N)=O)[nH]n3)C2)cc1 (configuration not stated) | 0.115
73 | COCCn1c2c(ccc1=O)CCN(C(=O)C1CC=CC1)CC2 | -2.63
74 | COCC1CC2(CCN(Cc3ccccn3)CC2)CN1c1ncccn1 (configuration not stated) | 0.787
75 | O=C1CC[C@@H]2[C@@H](CCN2C(=O)C2CCOCC2)N1CC1CC1 | -8.18
76 | Cc1cnn(CC2CN(Cc3nc(-c4ccccn4)no3)CCO2)c1 (configuration not stated) | 2.23
77 | O=C(CCc1ccncc1)N1CCCC(n2cccn2)C1 (configuration not stated) | -1.5
78 | CCc1nc(C2NC3(CCCC3)C(=O)N2CC2CC2)cs1 (configuration not stated) | 22.7
79 | Cn1cccc1C(=O)NCc1cnc2n1CCN(C(=O)N1CCCC1)C2 | -4.52
80 | CCCN1C(=O)CC(N2CCN(c3ccc(F)cc3)CC2)C1=O (configuration not stated) | 7.23
81 | O=C(c1ncoc1-c1ccco1)N1CCCN(c2ncccn2)CC1 | -12.9
82 | CN(C)Cc1cnc(C2CCN(C(=O)c3cccc(Cl)c3)C2)[nH]1 (configuration not stated) | -3.59
